“And” between values parts separate entries of the source, which are not always exact repeats. Equal values may be shown once. “Also recorded” adds a separate entry of the source.

Data on one molecule can be found in paper PMC5681660, “Reduced hepatitis B and D viral entry using clinically applied drugs as novel inhibitors of the bile acid transporter NTCP” (Scientific Reports, 2017).

For data set [1] the following is noted: sulfasalazine 1 gram; ref 5 (supplement); cited from earlier work.
Another data set deals with HDV. Nature of the data set: HDV infection of HepaRG cells (HDAg immunofluorescence). It is filed as cell-based, hepatitis delta virus. The conditions noted are these: HDAg positive cells, day 5; concentration-dependent.
A further data set has as its target T1, human NTCP (Homo sapiens, UniProt Q14973).
T1 sequence (Q14973 1-349): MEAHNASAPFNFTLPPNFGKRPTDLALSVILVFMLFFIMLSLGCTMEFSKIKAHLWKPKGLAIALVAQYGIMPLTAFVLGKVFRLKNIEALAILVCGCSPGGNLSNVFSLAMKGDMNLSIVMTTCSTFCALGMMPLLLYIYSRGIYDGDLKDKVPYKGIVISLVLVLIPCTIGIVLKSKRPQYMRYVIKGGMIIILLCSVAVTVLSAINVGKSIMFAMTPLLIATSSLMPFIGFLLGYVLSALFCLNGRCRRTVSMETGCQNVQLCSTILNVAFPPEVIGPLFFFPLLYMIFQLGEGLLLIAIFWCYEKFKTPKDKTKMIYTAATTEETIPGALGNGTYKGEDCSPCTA
Description: Screening taurocholate uptake assay (96-well, [14C]taurocholate, 10 µM drug).

Data set [2] deals with patient-derived HBV (genotype B). Nature of the data set: Serum-derived HBV genotype B infection of HepaRG cells stably transduced with hNTCP. It counts as cell-based, hepatitis B virus. The conditions noted are these: NTCP-overexpressing HepaRG cells. Here is the method: Supplementary materials and methods Serum-derived HBV genotype B infection study For these experiments HepaRG cells stably transduced with hNTCP were used. Differentiation and serum-derived HBV genotype B infection were performed following similar protocols as described for wildtype HepaRG cells in the main materials&methods with the following changes: 8 hours infection and supernatant collection for HBeAg and HBsAg analysis from day 9 to 12. Total RNA was extracted from cells 12 days after infection using the NucleoSpin RNA isolation kit (Macherey-Nagel). Reverse transcription was performed with the High-Capacity cDNA Reverse Transcription Kit (Thermo Scientific). mRNA levels were determined by qPCR using the iTaq™ Universal SYBR® Green Supermix (Bio-rad) with HBV specific primers (forward: 5’-[…]-3’; reverse: 5’-[…]-3’). GAPDH mRNA levels were used for normalization (forward: 5’-[…]-3’; reverse: 5’-[…]-3’). Total DNA was extracted from cells 12 days after infection using the NucleoSpin Tissue kit (Macherey-Nagel). HBV DNA levels were determined by qPCR PerfeCTa qPCR Toughmix (Quanta Biosciences) with HBV specific primers (forward: 5’- […]-3’; reverse: 5’- […]-3’) and a probe (5’-TxRed-[…]-BHQ2-3’). β-globin levels were used for normalization (forward: 5’- […]-3’; reverse: 5’- […]-3’; probe: 5’-HEX- […]-BHQ1-3’). […]

Data set [3] is described as follows: in vitro. To be noted: human.
The target in the next data set is T2, mouse NTCP (Mus musculus, UniProt O08705).
T2 construct: expressed in transfected cells; host or cells: U2OS (transient transfection, PEI)
T2 sequence (O08705 1-362): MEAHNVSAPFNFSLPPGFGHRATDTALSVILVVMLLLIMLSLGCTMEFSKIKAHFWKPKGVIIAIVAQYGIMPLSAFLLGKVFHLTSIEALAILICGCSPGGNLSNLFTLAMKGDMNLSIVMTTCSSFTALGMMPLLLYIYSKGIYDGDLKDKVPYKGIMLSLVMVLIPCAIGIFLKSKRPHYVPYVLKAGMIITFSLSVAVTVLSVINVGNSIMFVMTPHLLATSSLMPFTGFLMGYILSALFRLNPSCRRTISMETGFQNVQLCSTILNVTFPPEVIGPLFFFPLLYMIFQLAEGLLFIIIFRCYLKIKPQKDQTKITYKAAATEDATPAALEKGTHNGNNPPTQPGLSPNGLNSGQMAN
Nature of the data set: Taurocholate uptake in U2OS cells transiently transfected with mouse NTCP. It counts as cell-based. The conditions noted are these: at the calculated IC50 value for hNTCP. Here is the method:
U2OS and MDCK cells were grown in Dulbecco’s modified Eagle’s medium (DMEM, Sigma-Aldrich), supplemented with 10% FCS (Gibco), 1% L-glutamine (Lonza), and 1% penicillin/streptomycin (Lonza). […] Transient transfection of U2OS cells with mouse NTCP (mNTCP) was done with PEI reagent (Brunschwig, Basel, Switzerland). Shortly, U2OS cells were seeded one day prior to transfection in 24-well plates. On the day of transfection, 0.5 µg DNA was mixed with 100 µl unsupplemented DMEM and 3 µg/µl PEI. After 10–15 minute incubation at RT, 20 µl of the transfection mix was added to each 24-well. Transfected cells were used in further experiments 48–72 hours later. Cell lines were passaged twice a week at a confluence of 80%, and incubated in a humidified atmosphere of 37 °C + 5% CO2.
For MDCK or MDCK-hASBT cells 70.000 cells/well were plated in 24-well plates, followed by 24 hours 10 mM sodium butyrate (Sigma-Aldrich) stimulation the next day. Cells were used in the inhibition studies 24 hours (U2OS cell lines) or 48 hours (MDCK cell lines) later. Inhibition studies with mNTCP transiently transfected cells were conducted 48–72 hours after transfection.
Medium was aspirated from the wells and cells were washed once with 250 µL uptake buffer. Subsequently, cells were pre-incubated with drug in 150 µL uptake buffer for 10 minutes at 37 °C. Taurocholate uptake was initiated by addition of 100 µL uptake buffer containing taurocholate (final concentration 10 µM TC spiked with tritium-labeled TC) and cells were incubated for 2 minutes at 37 °C. Subsequently, cells were washed 4 times with ice-cold PBS and lysed with 0.05% SDS in water. Radioactivity was measured by liquid scintillation counting.

Data set [4] is described as follows: in vitro. To be noted: human, U2OS-HA-hNTCP cells.

The term viability denotes a read-out of living cells in per cent, often relative to untreated cells. Consider `O=C(O)c1cc(/N=N/c2ccc(S(=O)(=O)Nc3ccccn3)cc2)ccc1O` [Sulfasalazine], for which the “HBV infection in HepaRG cells (in words)” value in the data set with HBV (HBeAg, HBsAg, HBcAg, concentration-dependent) was “reduced HBV/HDV infection; also recorded: reduce”. In addition, the “concentration effective in reducing HBsAg” value in the data set with HBV (HepaRG cells infected with HBV, supernatant day 7 to 10) was ≥ 50 µM. In addition, the “number of HBcAg positive stained cells” value in the data set on HBV (HepaRG cells, day 10 post HBV infection, 50 µM) is reported as “mild reduction”. Moreover, the Expected serum concentration in data set [1] is 6 µg/ml and ~15 µM. Further, in the data set with HDV, the “HDV infection in HepaRG cells (in words)” value is listed as “reduced HBV/HDV infection; also recorded: reduce”. Also, the Ranking score at human NTCP (ranking over the functional and the binding screening assay) turned out to be 34.8999. Further, the B-score functional assay on human NTCP (screening taurocholate uptake, 10 µM drug) was -3.903. Moreover, the “HBeAg, HBsAg, HBV DNA and HBV RNA after serum-derived HBV infection” value in data set [2] was “reduced HBeAg, HBsAg, HBV DNA, and HBV RNA in a dose-dependent fashion”; in data set [2] (listed as sulfasalazine), “reduced by sulfasalazine in a dose-dependent fashion”. In addition, the viability at 2 h, 1 µM in “in vitro [3]” was found to be 100 ± 6.9%; in the data set “in vitro [4]” it was 98.1 ± 3%. Also, the viability at 2 h, 10 µM was 101 ± 8.4% in “in vitro [3]” and 90.6 ± 6.9% in “in vitro [4]”. Further, the figures for the viability at 2 h, 100 µM in the data set “in vitro [3]” and in the data set “in vitro [4]” were 97.8 ± 8% and 85 ± 9.1%, respectively. Moreover, the “inhibition of mouse Ntcp-mediated taurocholate uptake compared with human NTCP” value at mouse NTCP is recorded as “inhibited similarly as human NTCP”.
